Values quoted from earlier work as cited in US20140023696A1, “TREATMENT FOR IDIOPATHIC PULMONARY FIBROSIS” (priority 2012, published 2014).

Tested on: patients with IPF
Details: added to prednisone and azathioprine; 12 months of follow up

Structure (SMILES): CC(=O)N[C@@H](CS)C(=O)O [N-acetylcysteine]
- effect on FVC and DLCO: slight benefit
